Assay results from patent US20230310414A1.
Where two headings read alike, the source gives them in different places.

Experiments:
[1] = test system: IRAK1, NF-κB, MAPKs, IRAK4 (MyD88); assay: MyD88 downstream signalling in human macrophages; format: cell-based
SARS-CoV-2 = assay: cell viability (CPE) assay, VERO-E6 cells enriched for ACE-2 infected with SARS-CoV-2, CellTiter-Glo; format: cell-based; settings: for IC50: VERO-E6 cells enriched for ACE-2 plus SARS-CoV-2; for EC50: CPE assay
[2] = toxicity assay, VERO-E6 cells enriched for ACE-2 in the absence of virus, CellTiter-Glo; settings: African green monkey, VERO-E6 cells enriched for ACE-2 receptor, no virus
VERO-E6 cells = assay: as above; settings: compound alone
[3] = human macrophages, through interaction with MyD88
[4] = Severe acute respiratory syndrome coronavirus 2, Vero C1008, positive controls, read-out: IC50 (μM), In Vitro Anti-SARS-CoV-2 Activity

O.O=C(OC[C@H]1O[C@@H](OC(=O)c2cc(O)c(O)c(O)c2)[C@H](OC(=O)c2cc(O)c(O)c(O)c2)[C@@H](OC(=O)c2cc(O)c(O)c(O)c2)[C@@H]1OC(=O)c1cc(O)c(O)c(O)c1)c1cc(O)c(O)c(O)c1
NF-κB translocation into the nucleus [1]: inhibited
activation of IRAK1, NF-κB, and MAPKs [1, 3]: potently reduced
expression of IRAK4 [1, 3]: increasing expression

CCN(CC)CCCC(C)Nc1ccnc2cc(Cl)ccc12 (centres unmarked) [Chloroquine, chloroquine, reference compound]
IC50 (SARS-CoV-2; [4]): 3.78 µM
CC50 [2]: > 30 µM

CCOC(=O)[C@H]1O[C@@H]1C(=O)N[C@@H](CC(C)C)C(=O)NCCC(C)C [E64d (aloxistatin), aloxistatin, reference compound]
IC50 (SARS-CoV-2; [4]): 7.48 µM
CC50 [2]: > 30 µM

CCN(CCO)CCCC(C)Nc1ccnc2cc(Cl)ccc12 (centres unmarked) [Hydroxychloroquine, hydroxychloroquine, reference compound]
IC50 (SARS-CoV-2; [4]): 3.53 µM
CC50 [2]: > 30 µM

CCC(CC)COC(=O)[C@H](C)N[P@](=O)(OC[C@H]1O[C@@](C#N)(c2ccc3c(N)ncnn23)[C@H](O)[C@@H]1O)Oc1ccccc1 [Remdesivir, remdesivir, reference compound]
CC50 [2]: > 30 µM

COc1ccc2cc1Oc1ccc(cc1)C[C@H]1c3cc(c(OC)cc3CCN1C)Oc1c(OC)c(OC)cc3c1[C@H](C2)N(C)CC3 [tetrandrine, (1S,14S)-9,20,21,25-tetramethoxy-15,30-dimethyl-7,23-dioxa-15,30-diazaheptacyclo[22.6.2.2^3,6.1^8,12.1^14,18.0^27,31.0^22,33]hexatriaconta-3(36),4,6(35),8,10,12(34),18,20,22(33),24,26,31-dodecaene]
EC50 (SARS-CoV-2; Severe acute respiratory syndrome coronavirus 2, Vero C1008, compound alone): 1.25 µM
SI (selectivity index; CC50/EC50) (SARS-CoV-2; compound alone): SI: 5.02.
CC50 [2]: 6.28 µM

(14S,27S)-22,33-dimethoxy-13,28-dimethyl-2,5,7,20-tetraoxa-13,28-diazaoctacyclo[25.6.2.2^16,19.1^3,10.1^21,25.0^4,8.0^31,35.0^14,39]nonatri-aconta-1(33),3(39),4(8),9,16(38),17,19(37),21,23,25(36),31,34-dodecaene [cepharanthine]
EC50 (SARS-CoV-2; compound alone): 0.51 µM
IC50 (SARS-CoV-2; compound alone, read-out: IC50): 0.51 µM
CC50 (VERO-E6 cells; VERO-E6 cells enriched for ACE-2, absence of virus): 7.22 µM
CC50 (VERO-E6 cells): 7.22 µM
